“Also recorded” adds a separate entry of the source.
Key:
[1] = tested on: murine CD4+ CD25− T cells; assay: Th17 differentiation of activated CD4+ CD25− T cells (TGFβ plus IL-6; IL-17+ IFNγ− cells); type: cell-based, mouse; details: for IL-17 production / Th17 differentiation: 0.2 mM L-tryptophanol; for reversal of Th17 inhibition by threonine: 6 nM borrelidin, 0.5 mM threonine
Procedure: (§1) Purified CD4^+ CD25^− T cells were activated in vitro as previously described (Djuretic et al., Nat. Immunol. 8:145, 2007) using 0.3 μg/ml hamster anti-mouse CD3 (clone 145-2C11) (ATCC—Manassas, Va.) and 0.5 μg/ml hamster anti-mouse CD28 (BD Pharmingen—San Jose, Calif.). Activated cell cultures were differentiated using the following combinations of cytokines and antibodies: iTreg-recombinant human TGFβ1 (3 ng/ml—R&D systems, Minneapolis, Minn.), Th17-TGFβ1 (3 ng/ml) plus recombinant mouse IL-6 (30 ng/ml—R&D systems). Th1 and Th2 differentiation was performed as previously described (Djuretic et al., Nat. Immunol. 8:145, 2007). Human IL-2 supernatant (National Cancer Institute) was used in culture at 0.01 U/ml and was added at 48 hours-post activation when T cells were split into tissue culture wells lacking CD3 and CD28 antibodies, with the exception of Th17 cultures that were maintained in the absence of exogenous IL-2. CD8^+ T cells were activated with 1 μg/ml anti-CD3 and 1 μg/ml anti-CD28 and were expanded in 0.1 U/ml IL-2 until day 6 post activation. CD43-depleted B cells were activated in vitro by culturing with 25 μg/ml LPS (Sigma—St. Louis, Mo.) for 3-4 days in the presence or absence of TGFβ. All reagents (see below) were added at the time of T cell activation and again at 48 hours post activation unless indicated otherwise. For some experiments, purified CD4^+ CD25^− T cells, CD8^+ T cells or B cells were labeled with 1 μM CFSE (Invitrogen) prior to activation in accordance with manufacturer's instructions. Human T cell activation was performed by plating purified monocytes in a 96-well flat bottom plate at a concentration of 2×10^4 cells per well in complete medium overnight. 10^5 purified human memory T cells were added to monocyte cultures in the presence of soluble anti-CD3/anti-CD28 beads (Dynabeads, Invitrogen). T cells were expanded in the presence HF or MAZ1310 for up to 6 days.
MAZ1310 (Kamberov, Ph.D. Dissertation, Harvard University, 2008) was generated by chemical derivatization of halofuginone and was used at equal concentrations as a negative control. HF and MAZ1310 were prepared as 100 mM stock solutions in DMSO and diluted to the indicated concentrations. SB-431542 (Inman et al., Mol. Pharmacol. 62:65, 2002) (Tocris bioscience—Ellisville, Mo.) was prepared as a 10 mM stock solution in DMSO and was used in culture at 10 μM. L-tryptophanol was prepared as a 20 mM stock solution in 0.1 M NaOH, pH 7.4 and was used at 0.2 mM. For amino acid starvation experiments, T cells were activated and differentiated as above in D-MEM medium without L-cysteine and L-methionine (Invitrogen—Carlsbad, Calif.), or D-MEM medium without L-leucine. Stocks containing 20 mM L-cysteine (Sigma—St. Louis, Mo.) plus 10 mM L-methionine (Sigma), or 400 mM L-leucine (Sigma) were prepared in ddH2O, pH 1.0 and were added to medium at the indicated concentrations.
(§2) For detection of intracellular cytokines in murine cells, cultured T or B cells were stimulated with 10 nM PMA (Sigma) and […] (Sigma) for 4-5 hours in the presence of 10 mM brefeldin A (Sigma). Stimulated cells were harvested, washed with PBS and fixed with PBS plus 4% paraformaldehyde at room temperature for 20 minutes. Cells were then washed with PBS, permeabilized with PBS supplemented with 1% BSA and 0.5% saponin (Sigma) at room temperature for 10 minutes before cytokine-specific antibodies were added and incubated with cells for an additional 20 minutes at room temperature.

[2] = tested on: GCN2 phosphorylation / AAR pathway; assay: AAR pathway activation in MEFs (GCN2, eIF2a phosphorylation, CHOP); type: cell-based, mouse; details: for reversal of GCN2 phosphorylation by cognate amino acid: 2 mM proline or 2 mM threonine; for GCN2 phosphorylation in fibroblasts: 2 hours, borrelidin 1 μM
Procedure: FIG. 24. Activation of the AAR in cells by HF/FF occurs through inhibition of proline utilization. FIG. 24A is a gel showing HF-induction of the AAR pathway is reversed by proline. MEFs were treated with the indicated concentration of HF or FF in the presence or absence of 2 mM Proline for 2 hours (left) or treated with 1 μM borrelidin in the presence or absence of 2 mM Threonine for 2 hours (right). Cells were lysed and assessed by anti-pGCN2 or anti-GCN2 Western blot. Data are representative of three separate experiments.
FIG. 24B is a gel showing HF induction of eIF2a phosphorylation and CHOP expression is GCN2 dependent. Wild Type or GCN2−/− MEFs were treated with 50 nM HF in the presence or absence of 2 mM proline. Cells were lysed at 2 hours post-HF addition (peIF2a) or 6 hours post-HF addition (CHOP) and analyzed for phosphoprotein or total protein levels by Western blot.

[3] = tested on: translation in rabbit reticulocyte lysate; assay: In vitro translation in rabbit reticulocyte lysate (RRL); type: biochemical; details: for translation of luciferase RNA in RRL: standard amino acid mix
Procedure: FIG. 23. HF and FF inhibit prolyl tRNA synthetase activity in vitro. […] Rabbit reticulocyte lysate (RRL) was incubated with luciferase mRNA and translation quantitated in a luminescence assay. A high concentration of mixed or individual amino acids (1 mM of each) was added to rescue translational inhibition. AA Mix 1: Asn, Arg, Val, Glu, Gly; AA Mix2: Lys, Ile, Tyr, Asp, Trp; Mix 3: His, Met, Leu, Ala, Thr; Mix 4: Ser, Phe, Pro, Gln. […] Note log scale of y axis.
Inhibitors (FIG. 22) and proline were assayed as described in FIG. 23A. Note log scale at Y axis. Error bars reflect standard deviation of triplicate determinations.
Short myc-tagged polypeptides of identical sequence (see Example 9, “Materials and Methods”) with the exception that NoPro lacks proline, while ProPro contains a proline dipeptide, were translated in RRL in the presence of indicated inhibitors. Translation was examined by anti-myc Western blot.
Note log scale of Y axis.
Translation in vitro was performed using rabbit reticulocyte lysates and luciferase mRNA as template. Translation was measured as arbitrary units of luciferase activity using a luminometer based luminescence assay. Log scale presentation of background-subtracted data is shown.

TGFβ signaling = assay: Lymphocyte responses to TGFβ (Smad phosphorylation and others); type: cell-based, mouse; details: low dose HF; 10 μM SB-431542
Procedure: FIG. 8. […] FIG. 8A is a set of FACS analyses of CD4^+ CD25^− T cells activated in Th1 or Th2 polarizing conditions, either in the presence or absence of TGFβ. DMSO, 10 nM HF, 10 nM MAZ1310, or 10 μM SB-431542 added as indicated at the time of activation. Intracellular cytokine staining was performed on expanded T cells on day 5.
FIG. 8B is a set of FACS analyses of CD8^+ T cells activated in the presence or absence of TGFβ and cultured with DMSO, 10 nM HF, 10 nM MAZ1310, or 10 μM SB-431542. Expanded cells were restimulated on day 5 and intracellular staining was performed.
FIG. 8C is a set of FACS analyses of CFSE-labeled B cells activated by LPS stimulation in the presence or absence of TGFβ plus DMSO, 10 nM HF, 10 nM MAZ1310, or 10 μM SB-431542. Intracellular IL-6 production in B cells restimulated with PMA plus ionomycin, or cell-surface IgA expression was determined 4 days after activation.
FIG. 8D depicts western blot analyses of purified CD4^+ CD25^− T cells treated with DMSO, 40 nM MAZ1310, titrating concentrations of HF (2.5-40 nM) or 10 μM SB-431542 for 30 minutes in complete medium supplemented with 0.1% fetal calf serum. T cells were then activated in the presence or absence of 3 ng/ml TGFβ. Whole cell extracts were prepared after 1 hour of stimulation and western blot analyses were performed using the indicated antibodies. […]

[4] = Cell-based assays (not specified)
[5] = tested on: mouse and human fibroblasts; assay: Collagen protein production in mouse and human fibroblasts; type: cell-based; details: data not shown
[6] = tested on: murine CD4+ CD25− T cells, CD8+ T cells, B cells; assay: T and B cell activation, proliferation, cytokine production and Th1/Th2/iTreg differentiation; type: cell-based, mouse; details: 3 ng/ml Borrelidin
Procedure: FIG. 2A, Left, is a graph showing dose response analyses performed on activated carboxyfluorescein succinimidyl ester (CFSE)-labeled CD4^+CD25^− T cells in the presence of DMSO, 40 nM MAZ1310, or increasing concentrations of halofuginone (HF) (1.25-40 nM). CFSE dilution and cell surface CD25 expression were determined 48 hours after activation. Intracellular cytokine production was determined on day 4 or 5 following restimulation with phorbol myristate acetate (PMA) and ionomycin. […] FIG. 2A, Right is a graph showing dose-response analyses of HF effects on CD8^+ T cell or B cell function. Cells were activated in the presence of DMSO, 40 nM MAZ1310, or increasing concentrations of HF (1.25-40 nM). CFSE dilution, cell surface CD25 expression, and intracellular cytokine production were determined as above 2-5 days after activation.
At approximately 10-fold higher concentrations (>20 nM), HF induced a general inhibition of T and B cell activation, proliferation, and effector function (FIG. 2A, 2B).
as §1
Cytokines secreted into media supernatant were measured using the mouse Th1/Th2 cytometric bead array (CBA—BD Pharmingen) in accordance with manufacturers instructions. Briefly, CD4+ CD25− T cells were activated in anti-CD3/anti-CD28-coated tissue culture wells (see above) and supernatants were collected at the indicated times.
as §2, with “temperature. […]” for “temperature.”

Structure (SMILES): N[C@H](CO)Cc1c[nH]c2ccccc12 [L-tryptophanol]
- IL-17 production / Th17 differentiation [1]: impaired IL-17 production
- IL-17 production / Th17 differentiation ([1]; listed as tryptophanol): inhibited Th17 differentiation
- Th17 differentiation ([1]; 1 mM Tryptophanol): inhibits Th17 differentiation

Structure (SMILES): O=C(C[C@H]1NCCC[C@@H]1O)Cn1cnc2ccccc2c1=O [FF, febrifugine]
- reversal of GCN2 phosphorylation by cognate amino acid [2]: abrogated by the addition of 2 mM proline
- GCN2 phosphorylation in fibroblasts [2]: Stimulation of GCN2 phosphorylation
- translation of NoPro polypeptide [3]: had no effect on the translation of NoPro
- translation of ProPro polypeptide [3]: prevented translation of ProPro
- rescue of translation inhibition by added purified EPRS ([3]; 80 ng or 0.5 μg EPRS): rescued HF/FF-inhibition of protein translation
- rescue of translation inhibition by added amino acids ([3]; excess amino acids (1-2 mM)): only proline could restore translation
- translation of luciferase RNA in RRL [3]: inhibited the translation of luciferase RNA

Structure (SMILES): NC(=O)c1ccc(-c2nc(-c3ccc4c(c3)OCO4)c(-c3ccccn3)[nH]2)cc1 [SB-431542]
- TGFβ-induced Smad phosphorylation and other lymphocyte responses to TGFβ (TGFβ signaling): abrogated all responses to TGFβ

Structure (SMILES): CC(C)(C)OC(=O)N1CCC[C@H](O)[C@H]1CC(=O)Cn1cnc2cc(Br)c(Cl)cc2c1=O [MAZ1310]
- activity in cell-based assays [4]: lack activity
- translation of luciferase RNA in RRL [3]: no activity

Structure (SMILES): C[C@@H]1C[C@H](C)C[C@H](C)[C@@H](O)CC(=O)O[C@H]([C@@H]2CCC[C@H]2C(=O)O)C/C=C/C=C(/C#N)[C@H](O)[C@@H](C)C1 [borrelidin]
- reversal of GCN2 phosphorylation by cognate amino acid [2]: prevented by addition of an excess of its cognate amino acid threonine
- GCN2 phosphorylation in fibroblasts [2]: stimulate GCN2 phosphorylation
- production of collagen protein [5]: inhibited by borrelidin-treatment and rescued by the addition of threonine
- Th17 cell differentiation ([1]; 6 nM (3 ng/mL) borrelidin): Selectively Inhibits Th17 Differentiation; also recorded: inhibited Th17 cell differentiation
- reversal of Th17 inhibition by threonine [1]: rescued by its cognate amino acid
- reversal of Th17 inhibition by threonine ([1]; listed as Borrelidin): reversed by the addition of threonine
- differentiation of Th1, Th2, or iTreg cells [6]: without perturbing the differentiation of Th1, Th2, or iTreg cells

Structure (SMILES): CC(=O)N1CCC[C@H](O)[C@H]1CC(=O)Cn1cnc2cc(Br)c(Cl)cc2c1=O [MAZ1442]
- activity in cell-based assays [4]: lack activity
- translation of luciferase RNA in RRL [3]: no activity
